{"source": "patent US6399745B1", "about": "“Use of leptin antagonists for treating insulin resistance in type II diabetes” (Aventis Pharma Deutschland GmbH, priority 1996, dated 2002)", "key": {"isolated rat adipocytes [1]": {"test_system": "isolated rat adipocytes", "assay": "Glucose transport (2-deoxyglucose uptake) in isolated rat adipocytes after primary culture with leptin, basal and insulin-stimulated", "type": "cell-based", "description": "(§1) Adipocytes were prepared from the epididymal fat tissue of male Wistar rats (140-160 g, Hoechst AG breeding station, Kastengrund) by means of digesting with collagenase (Rodbell, 1964, J. Biol. Chem. 239, 375-380), washed twice with KRH (25 mM Hepes free acid, 25 mM Hepes sodium salt, 80 mM NaCl, 1 mM MgSO4, 2 mM CaCl2, 6 mM KCl, 1 mM sodium pyruvate, 0.5% BSA) and once with DMEM (Dulbecco's minimal essential medium), supplemented with 5.5 mM glucose, 20 mM Hepes (pH 7.4), 2% fetal calf serum, 1% BSA, 50 U of penicillin/ml, […], by means of flotation (800×g, 1 min, in small plastic tubes), and finally diluted to a volume of 20 ml of DMEM/g wet weight of the fat tissue (cell titer: approximately 2.5×10^5 cells/ml).\nThe adipocytes were incubated, at 37° C. for 15-18 h under an atmosphere of 5% CO2 and with gentle shaking, in supplemented (see above) DMEM in the presence of 100 nM phenylisopropyladenosine (4 ml of DMEM to 1 ml of cells, cell titer approximately 5×10^4 cell/ml, in 50 ml sterile polypropylene: tubes) and in the presence or absence of leptin. The adipocytes were subsequently washed three times with cold KRH and adjusted to a cell titer of approximately 3×10^5 cells/ml by adding 0.7 ml of glucose-free KRH to the cell layer which remained after the complete removal of the last washing solution. In order to determine the capacity of the adipocytes to be stimulated by insulin, and their sensitivity to insulin, following the primary culture, the washed adipocytes were incubated at 37° C. for 20 min in the absence or presence of human insulin (0.02-50 nM final concentration), and glucose transport or lipogenesis was then measured.\nGlucose transport was measured as the specific uptake of the non-metabolizable glucose analog 2-deoxyglucose (Muller and Wied, 1993, Diabetes 42, 1852-1867). 50 μl of the adipocyte suspension in KRH, which suspension had or had not been preincubated with insulin (see above), were incubated, at 25° C. for 5 min, with 50 μl of KRH which was supplemented with 2-deoxy-D-[2,6-^3H]glucose (0.5 μCi, 0.2 mM). The incubation mixtures were transferred to thin soft-plastic centrifuge tubes, each of which already contained 200 μl of dinonyl phthalate oil, and immediately centrifuged (2,000×g, 30 sec). Using special shears, the tubes were severed within the oil layer (in the vicinity of the upper edge) and the upper halves of the tubes, together with the cell layers which had in each case been floated onto the oil layer, were transferred to scintillation vials. After 10 ml of scintillation fluid (water-based) had been added, the radioactivity associated with the cells was measured. In order to correct for 2-deoxyglucose which had become enclosed in the cell interstices, or had diffused into the cells, in a non-specific manner, the radioactivity of cells which had been preincubated with cytochalasin B (20 μM) was subtracted from the total cell-associated radioactivity of each individual incubation mixture (Gliemann et al., 1972, Biochim. Biophys. Acta 286, 1-9).\nIsolated rat adipocytes were incubated for 15 h in primary culture in the presence or absence of increasing concentrations of leptin. […] The stimulation factor for insulin was calculated as the ratio between insulin-stimulated and basal activities. Each value represents the mean from two independent adipocyte cultures with activity being determined two or three times in each case.\nThe cells were then washed and tested for the stimulation of glucose transport by differing concentrations of insulin. Glucose transport activity is given as a “dpm value” of the 2deoxy-[^3H]glucose which is specifically associated with the cells. Each value represents the mean from two independent adipocyte cultures with the activity being determined four times in each case."}, "isolated rat adipocytes [2]": {"test_system": "isolated rat adipocytes", "assay": "Antagonism of fragment 116-167 to the leptin effect: insulin-stimulated glucose transport", "type": "cell-based", "conditions": "Insulin only, 5 nM (no leptin, no fragment)", "description": "as §1, with “cells/ml). […]” for “cells/ml).”\nGlucose transport was measured as the specific uptake of the non-metabolizable glucose analog 2-deoxyglucose (Muller and Wied, 1993, Diabetes 42, 1852-1867). […] After 10 ml of scintillation fluid (water-based) had been added, the radioactivity associated with the cells was measured. […]\nIsolated rat adipocytes were incubated for 17.5 h in primary culture in the presence or absence of leptin (10 nM) and increasing concentrations of leptin fragment 116-167. […] The stimulation factor for insulin was calculated as the ratio between the insulin-stimulated activity and the basal activity. […]"}}}
{"substance": "Insulin: human insulin used to stimulate adipocytes [reference compound]", "values": [{"measurement": "stimulation of glucose transport by insulin", "setting": "isolated rat adipocytes [1]; insulin 10 nM", "result": "approximately 14 fold"}, {"measurement": "insulin concentration at which effects can already be detected in vitro", "setting": "isolated rat adipocytes [1]; insulin dose/effect curves, glucose transport", "result": "0.1 to 0.2", "unit": "nM"}, {"measurement": "glucose transport, uptake of 3H-labeled 2-deoxyglucose", "setting": "isolated rat adipocytes [1]; no leptin, insulin 0.02 nM", "result": 784, "unit": "dpm"}, {"measurement": "glucose transport, uptake of 3H-labeled 2-deoxyglucose", "setting": "isolated rat adipocytes [1]; no leptin, insulin 0.05 nM", "result": 1285, "unit": "dpm"}, {"measurement": "glucose transport, uptake of 3H-labeled 2-deoxyglucose", "setting": "isolated rat adipocytes [1]; no leptin, insulin 0.1 nM", "result": 2406, "unit": "dpm"}, {"measurement": "glucose transport, uptake of 3H-labeled 2-deoxyglucose", "setting": "isolated rat adipocytes [1]; no leptin, insulin 0.2 nM", "result": 4762, "unit": "dpm"}, {"measurement": "glucose transport, uptake of 3H-labeled 2-deoxyglucose", "setting": "isolated rat adipocytes [1]; no leptin, insulin 0.5 nM", "result": 6976, "unit": "dpm"}, {"measurement": "glucose transport, uptake of 3H-labeled 2-deoxyglucose", "setting": "isolated rat adipocytes [1]; no leptin, insulin 1 nM", "result": 7981, "unit": "dpm"}, {"measurement": "glucose transport, uptake of 3H-labeled 2-deoxyglucose", "setting": "isolated rat adipocytes [1]; no leptin, insulin 2 nM", "result": 8576, "unit": "dpm"}, {"measurement": "glucose transport, uptake of 3H-labeled 2-deoxyglucose", "setting": "isolated rat adipocytes [1]; no leptin, insulin 5 nM", "result": 8956, "unit": "dpm"}, {"measurement": "glucose transport, uptake of 3H-labeled 2-deoxyglucose", "setting": "isolated rat adipocytes [1]; no leptin, insulin 10 nM", "result": 9064, "unit": "dpm"}, {"measurement": "glucose transport, uptake of 3H-labeled 2-deoxyglucose", "setting": "isolated rat adipocytes [1]; no leptin, insulin 50 nM", "result": 9072, "unit": "dpm"}, {"measurement": "Glucose Transport, stimulation factor for insulin (stimulated/basal)", "setting": "isolated rat adipocytes [1]; no leptin, Insulin concentration: 5 nM", "result": 13.4}, {"measurement": "Glucose Transport, stimulation factor for insulin (stimulated/basal)", "setting": "isolated rat adipocytes [2]", "result": 13.4}]}
